System: GNS166 cells
Assay: Label-free proteomics differential expression
Format: cell-based, human
Procedure: Proteomic studies were performed by the Proteomics Facility of the CIC bioGUNE by label-free relative quantification on nLC MS/MS. […] In both approaches, the top 20 enriched terms were plotted and the pathways were clustered using divisive hierarchical clustering based on pairwise Jaccard distances.

SMILES: C#CCN(Cc1cc2cc(OCCCN3CCCCC3)ccc2n1S(=O)(=O)c1ccccc1)C(=O)CCCCCCC(=O)NO [DDI]
- LogFC STAU1_HUMAN (protein O95793): -0.5064
- LogFC BPNT1_HUMAN (protein O95861 GN=BPNT1): 0.8709
- Direction MBD3_HUMAN (protein O95983): Down
- LogFC MBD3_HUMAN (protein O95983): -1.39
- Direction ZBED1_HUMAN (protein O96006): Down
- LogFC ZBED1_HUMAN (protein O96006): -1.855
- Direction NSD2_HUMAN (protein O96028): Down
- LogFC NSD2_HUMAN (protein O96028): -2.1573
- LogFC TPC2B_HUMAN (protein P0DI82 GN=TRAPPC2B): 1.676
- LogFC HS71A_HUMAN (protein P0DMV8 GN=HSPA1A): 0.6446
- LogFC AL1A1_HUMAN (protein P00352 GN=ALDH1A1): 1.798
- Direction EGFR_HUMAN (protein P00533): Down
- LogFC EGFR_HUMAN (protein P00533): -0.977
- LogFC TPA_HUMAN (protein P00750 GN=PLAT): 1.254
- LogFC CAH2_HUMAN (protein P00918 GN=CA2): 2.905
- LogFC LDLR_HUMAN (protein P01130 GN=LDLR): -1.436
- LogFC TFR1_HUMAN (protein P02786 GN=TFRC): 0.6801
- LogFC TRFE_HUMAN (protein P02787 GN=TF): 1.471
- LogFC FRIL_HUMAN (protein P02792 GN=FTL): 2.1013
- LogFC GLCM_HUMAN (protein P04062 GN=GBA): 1.34
- Direction ANXA1_HUMAN (protein P04083): Down
- LogFC ANXA1_HUMAN (protein P04083): -0.1864
- LogFC OAT_HUMAN (protein P04181 GN=OAT): 0.8669
- LogFC TBB4A_HUMAN (protein P04350 GN=TUBB4A): 2.022
- LogFC AT1B1_HUMAN (protein P05026 GN=ATP1B1): 0.7382
- LogFC CHLE_HUMAN (protein P06276 GN=BCHE): 1.793
- LogFC GELS_HUMAN (protein P06396 GN=GSN): 1.338
- Direction CDK1_HUMAN (protein P06493): Down
- LogFC CDK1_HUMAN (protein P06493): -2.828
- LogFC H10_HUMAN (protein P07305 GN=H1-0): 2.4177
- Direction CAN1_HUMAN (protein P07384): Down
- LogFC CAN1_HUMAN (protein P07384): -0.5477
- LogFC HEXB_HUMAN (protein P07686 GN=HEXB): 2.1461
- LogFC TNR16_HUMAN (protein P08138 GN=NGFR): 4.357
- LogFC ASNS_HUMAN (protein P08243 GN=ASNS): 0.9749
- LogFC ANXA5_HUMAN (protein P08758 GN=ANXA5): 0.5383
- Direction SRP19_HUMAN (protein P09132): Down
- LogFC SRP19_HUMAN (protein P09132): -0.7201
- Direction HMGB1_HUMAN (protein P09429): Down
- LogFC HMGB1_HUMAN (protein P09429): -0.3836
- LogFC SPRC_HUMAN (protein P09486 GN=SPARC): 0.9159
- Direction DPOLA_HUMAN (protein P09884): Down
- LogFC DPOLA_HUMAN (protein P09884): -0.7754
- LogFC TZAP_HUMAN (protein P10074 GN=ZBTB48): 0.6846
- LogFC LYAG_HUMAN (protein P10253 GN=GAA): 1.719
- LogFC RRAS_HUMAN (protein P10301 GN=RRAS): 1.8337
- Direction COT1_HUMAN (protein P10589): Down
- LogFC COT1_HUMAN (protein P10589): -2.0511
- LogFC PPGB_HUMAN (protein P10619 GN=CTSA): 1.238
- LogFC LAMC1_HUMAN (protein P11047 GN=LAMC1): 1.296
- LogFC MTAP2_HUMAN (protein P11137 GN=MAP2): 1.918
- Direction GTR1_HUMAN (protein P11166): Down
- LogFC GTR1_HUMAN (protein P11166): -1.063
- LogFC GTR3_HUMAN (protein P11169 GN=SLC2A3): 0.7017
- Direction PYGM_HUMAN (protein P11217): Down
- LogFC PYGM_HUMAN (protein P11217): -1.18
- LogFC LAMP1_HUMAN (protein P11279 GN=LAMP1): 0.9125
- Direction TOP2A_HUMAN (protein P11388): Down
- LogFC TOP2A_HUMAN (protein P11388): -2.075
- LogFC G6PD_HUMAN (protein P11413 GN=G6PD): 0.8016
- LogFC PRPS2_HUMAN (protein P11908 GN=PRPS2): 1.0339
- Direction COBA1_HUMAN (protein P12107): Down
- LogFC COBA1_HUMAN (protein P12107): -0.989
- Direction CO6A1_HUMAN (protein P12109): Down
- LogFC CO6A1_HUMAN (protein P12109): -2.398
- LogFC LAMP2_HUMAN (protein P13473 GN=LAMP2): 0.7741
- LogFC MTDC_HUMAN (protein P13995 GN=MTHFD2): 1.415
- LogFC CBPM_HUMAN (protein P14384 GN=CPM): 1.371
- Direction CCNB1_HUMAN (protein P14635): Down
- LogFC CCNB1_HUMAN (protein P14635): -2.713
- LogFC ARSA_HUMAN (protein P15289 GN=ARSA): 0.8733
- LogFC NQO2_HUMAN (protein P16083 GN=NQO2): 1.439
- Direction ITB4_HUMAN (protein P16144): Down
- LogFC ITB4_HUMAN (protein P16144): -1.613
- LogFC CBR1_HUMAN (protein P16152 GN=CBR1): 1.143
- Direction ANK1_HUMAN (protein P16157): Down
- LogFC ANK1_HUMAN (protein P16157): -1.996
- Direction GCFC2_HUMAN (protein P16383): Down
- LogFC GCFC2_HUMAN (protein P16383): -2.09
- LogFC SYN1_HUMAN (protein P17600 GN=SYN1): 2.1979
- Direction CAN2_HUMAN (protein P17655): Down
- LogFC CAN2_HUMAN (protein P17655): -0.5036
- LogFC DDX5_HUMAN (protein P17844 GN=DDX5): -0.6799
- Direction PFKAL_HUMAN (protein P17858): Down
- LogFC PFKAL_HUMAN (protein P17858): -0.5357
- Direction ITB5_HUMAN (protein P18084): Down
- LogFC ITB5_HUMAN (protein P18084): -1.897
- Direction SDC1_HUMAN (protein P18827): Down
- LogFC SDC1_HUMAN (protein P18827): -2.102
- Direction PLCG1_HUMAN (protein P19174): Down
- LogFC PLCG1_HUMAN (protein P19174): -1.036
- LogFC RXRA_HUMAN (protein P19793 GN=RXRA): -2.086
- Direction MX1_HUMAN (protein P20591): Down
- LogFC MX1_HUMAN (protein P20591): -3.492
- LogFC FILA_HUMAN (protein P20930 GN=FLG): 2.48
- Direction RASA1_HUMAN (protein P20936): Down
- LogFC RASA1_HUMAN (protein P20936): -0.7321
- LogFC VATB2_HUMAN (protein P21281 GN=ATP6V1B2): 1.09
- LogFC VATC1_HUMAN (protein P21283 GN=ATP6V1C1): 0.7781
- LogFC AOFA_HUMAN (protein P21397 GN=MAOA): 0.8861
- LogFC ACOC_HUMAN (protein P21399 GN=ACO1): 0.9989
- LogFC TGM2_HUMAN (protein P21980 GN=TGM2): 2.278
- Direction PTPRE_HUMAN (protein P23469): Down
- LogFC PTPRE_HUMAN (protein P23469): -2.558
- Direction RIR1_HUMAN (protein P23921): Down
- LogFC RIR1_HUMAN (protein P23921): -1.151
- Direction MCM3_HUMAN (protein P25205): Down
- LogFC MCM3_HUMAN (protein P25205): -0.4173
- LogFC MOES_HUMAN (protein P26038 GN=MSN): -0.6643
- Direction DNMT1_HUMAN (protein P26358): Down
- LogFC DNMT1_HUMAN (protein P26358): -0.8972
- Direction HMGB2_HUMAN (protein P26583): Down
- LogFC HMGB2_HUMAN (protein P26583): -0.4752
- Direction SYVC_HUMAN (protein P26640): Down
- LogFC SYVC_HUMAN (protein P26640): -0.2125

Source: PMC11971462, “Generation and validation of a novel multitarget small molecule in glioblastoma” (Cell Death & Disease, 2025)
